{"source": "patent US8211906B1", "about": "“Method of inhibiting growth of neoplastic cells and inhibiting infection by administering an immune enhancer drug” (priority 2003, dated 2012)", "key": {"[1]": {"system": "mouse spleen cell cultures", "settings": "cited from earlier work"}, "[2]": {"system": "isolated human mononuclear cells", "settings": "cited from earlier work"}, "rhinovirus 1A": {"system": "rhinovirus 1A", "settings": "in vitro, cells infected with rhinovirus 1A; cited from earlier work"}, "[3]": {"system": "respiratory syncytial virus", "settings": "in vitro, cells infected with respiratory syncytial virus; cited from earlier work"}, "varicella zoster": {"system": "varicella zoster", "settings": "in vitro, cells infected with varicella zoster; cited from earlier work"}, "[4]": {"system": "spleen, bone marrow, liver, peritoneal exudates and alveolar macrophages", "settings": "in vitro; cited from earlier work"}, "primary genital herpes": {"system": "primary genital herpes", "settings": "guinea pigs, single dose; cited from earlier work"}, "Rift Valley Fever virus": {"system": "Rift Valley Fever virus", "settings": "monkeys; cited from earlier work"}, "Banzi virus": {"system": "Banzi virus", "settings": "monkeys; cited from earlier work"}, "[5]": {"system": "a number of different tumor cell types", "settings": "mice implanted with tumor cells; cited from earlier work"}, "[6]": {"settings": "cited from earlier work"}, "[7]": {"settings": "cited from earlier work", "remark": "listed apart in the source"}, "[8]": {"system": "cutaneous metastatic melanoma", "settings": "topical, under occlusion; cited from earlier work"}, "[9]": {"settings": "topical; cited from earlier work"}, "[10]": {"settings": "cited from earlier work", "remark": "listed apart in the source"}, "aqueous solubility": {"assay": "aqueous solubility", "settings": "pH 7.4, aqueous buffer"}, "physchem": {"assay": "physchem", "settings": "water"}}}
{"smiles": "CC(C)Cn1cnc2c(N)nc3ccccc3c21", "note": "[imiquimod, 1-(2-methylpropyl)-1H-imidazo[4,5-c]quinolin-4-amine]", "values": [{"measurement": "concentration of maximum activity, induced proliferation", "setting": "[1]", "value": 1, "unit": "µg/mL"}, {"measurement": "concentration of maximal interferon-alpha production", "setting": "[2]", "value": 3, "unit": "µM"}, {"measurement": "plaque reduction", "setting": "rhinovirus 1A", "value": 50, "unit": "%"}, {"measurement": "plaque reduction", "setting": "[3]", "value": 50, "unit": "%"}, {"measurement": "plaque reduction", "setting": "varicella zoster", "value": 50, "unit": "%"}, {"measurement": "time of cytokine induction after exposure", "setting": "[4]", "value": "1 to 2", "unit": "h"}, {"measurement": "time of peak cytokine induction", "setting": "[4]", "value": 8, "unit": "h"}, {"measurement": "treatment of primary genital herpes infections", "setting": "primary genital herpes", "value": "effectively treats"}, {"measurement": "efficacy against Rift Valley Fever virus", "setting": "Rift Valley Fever virus", "value": "effective"}, {"measurement": "efficacy against Banzi virus", "setting": "Banzi virus", "value": "effective"}, {"measurement": "anti-tumor effect", "setting": "[5]", "value": "effective anti-tumor agent"}, {"measurement": "systemic exposure", "setting": "[6]; dermal administration", "value": "minimal"}, {"measurement": "absorption", "setting": "[6]; oral administration", "value": "rapidly absorbed"}, {"measurement": "systemic toxicity", "setting": "[7]; oral administration", "value": "significant systemic toxicity"}, {"measurement": "skin irritation", "setting": "[7]; topical administration of creams", "value": "significant skin irritation"}, {"measurement": "treatment of cutaneous metastatic melanoma", "setting": "[8]", "value": "successfully treated"}, {"measurement": "effect on contact allergy to dinitrochlorobenzene", "setting": "[9]", "value": "enhanced contact allergy"}, {"measurement": "solubility in water and common organic solvents", "setting": "[10]; free base form", "value": "almost insoluble"}, {"measurement": "solubility at physiologic pH", "setting": "[10]; physiologic pH", "value": "1-2 μg/ml"}, {"measurement": "solubility", "setting": "aqueous solubility", "value": 4, "unit": "µM"}]}
{"smiles": "CC(C)(C)CC(=O)OCC(=O)[C@@]12OC(C)(C)O[C@@H]1C[C@H]1[C@@H]3CCC4=CC(=O)C=C[C@]4(C)[C@@]3(F)[C@@H](O)C[C@@]12C", "note": "[Triamcinolone hexacetonide]", "values": [{"measurement": "solubility", "setting": "physchem", "value": 3.75, "unit": "µM"}]}
